US6110965A, “Ketolides from the class of 15-membered lactams” (PLIVA, farmaceutska, kemijska, prehrambena i kozmeticka …, priority 1998, dated 2000)
Converted amounts (≈) assume the structure as drawn. Read-outs that look alike come from different tables or passages of the source.

How the values were obtained:
[1] = tested on: Listeria monocytogenes ATCC 7644; assay: Antibacterial in vitro action (MIC), microdilution process according to NCCLS; assay type: cell-based
[2] = tested on: Staphylococcus aureus ATCC 25923; assay: as above; assay type: cell-based
[3] = tested on: Staphylococcus epidermidis ATCC 12228; assay: as above; assay type: cell-based
[4] = tested on: Enterococcus faecalis ATCC 35550; assay: as above; assay type: cell-based
[5] = tested on: Streptococcus pneumoniae ATCC 6305; assay: as above; assay type: cell-based
[6] = tested on: Streptococcus pyogenes ATCC 19615; assay: as above; assay type: cell-based
[7] = tested on: Clostridium perfringens ATCC 13124; assay: microbe, parasite or virus in culture; assay type: cell-based; conditions: ATCC13124, read-out: Antibacterial in vitro action (MIC, mg/l)
[8] = tested on: Moraxella catarrhalis ATCC 25238; assay: Antibacterial in vitro action (MIC), microdilution process according to NCCLS; assay type: cell-based
[9] = tested on: Campylobacter fetus ATCC 19438; assay: as above; assay type: cell-based
[10] = tested on: Campylobacter jejuni ATCC 33291; assay: as above; assay type: cell-based
[11] = tested on: Citroobacter freundii ATCC 8090; assay: as above; assay type: cell-based; conditions: read-out: Antibacterial in vitro action (MIC, mg/l)
[12] = tested on: Escherichia coli ATCC 25922; assay: as above; assay type: cell-based; conditions: ATCC25922, read-out: Antibacterial in vitro action (MIC, mg/l)
[13] = tested on: Proteus mirabilis ATCC 12453; assay: as above; assay type: cell-based
[14] = tested on: Proteus mirabilis ATCC 43071; assay: as above; assay type: cell-based
[15] = tested on: Salmonella choleraesuis ATCC 13076; assay: as above; assay type: cell-based; conditions: Salmonella enterica, read-out: Antibacterial in vitro action (MIC, mg/l)
[16] = tested on: Shigella flexneri ATCC 12022; assay: as above; assay type: cell-based; conditions: ATCC12022, read-out: Antibacterial in vitro action (MIC, mg/l)
Procedure: Antibacterial in vitro action of the new compounds of the general formula (I), wherein A, B, R^1, R^2 and R^3 have the above-mentioned meanings, and of their pharmaceutically acceptable addition salts with inorganic or organic acids was determined on a series of standard test microorganisms and clinical isolates by microdilution process according to the protocol NCCLS (The National Commitee for Clinical Laboratory Standards, Document M7-A2, Vol. 10, No. 8, 1990 and Document M11-A2, Vol. 10, 15,1991). The control of the laboratory process was performed by means of control strain Staphyloccocus aureus ATTC 29213 (The American Type Culture Collection) according to protocol NCCLS (Document M7-A2, Table 3, M100-S4).
The antibacterial in vitro action on a series of standard test microorganisms for 6-O-methyl-8a-aza-8a-homoerythromycin A from Example 3 in comparison with azithromycin, erythromycin and clarithromycin is represented in Table 1.

[17] = tested on: Yersinia enterocolitica ATCC 9610; assay: as above; assay type: cell-based
[18] = tested on: Haemophilus influenzae ATCC 49247; assay: as above; assay type: cell-based
[19] = tested on: Haemophilus influenzae ATCC 49766; assay: as above; assay type: cell-based
[20] = tested on: Pseudomonas aeruginosa ATCC 25619; assay: as above; assay type: cell-based
[21] = oral preparations; cited from earlier work
[22] = in vivo; cited from earlier work
human phagocyte cells = conditions: cited from earlier work
gram-negative bacteria = conditions: cited from earlier work
[23] = compared to erythromycin A; cited from earlier work
[24] = tested on: gram-positive bacterial strains; conditions: compared to erythromycin A; cited from earlier work
[25] = Listeria monocytogenes, ATCC7644, read-out: Antibacterial in vitro action (MIC, mg/l)
[26] = Streptococcus pneumoniae, ATCC6305, read-out: Antibacterial in vitro action (MIC, mg/l)
[27] = Streptococcus pyogenes, ATCC19615, read-out: Antibacterial in vitro action (MIC, mg/l)
[28] = Moraxella catarrhalis, ATCC25238, read-out: Antibacterial in vitro action (MIC, mg/l)
[29] = Campylobacter fetus, ATCC19438, read-out: Antibacterial in vitro action (MIC, mg/l)
[30] = Campylobacter jejuni, ATCC33291, read-out: Antibacterial in vitro action (MIC, mg/l)
[31] = ATCC25923, Staphylococcus aureus ATCC 25923, read-out: Antibacterial in vitro action (MIC, mg/l)
[32] = ATCC12228, Staphylococcus epidermidis ATCC 12228, read-out: Antibacterial in vitro action (MIC, mg/l)
[33] = ATCC35550, Enterococcus faecalis ATCC 35550, read-out: Antibacterial in vitro action (MIC, mg/l)
[34] = Citroobacter freundii ATCC 8090
[35] = ATCC12453, Proteus mirabilis ATCC 12453, read-out: Antibacterial in vitro action (MIC, mg/l)
[36] = ATCC43071, Proteus mirabilis ATCC 43071, read-out: Antibacterial in vitro action (MIC, mg/l)
[37] = Salmonella choleraesuis ATCC 13076
[38] = ATCC9610, Yersinia enterocolitica ATCC 9610, read-out: Antibacterial in vitro action (MIC, mg/l)
[39] = ATCC49247, Haemophilus influenzae ATCC 49247, read-out: Antibacterial in vitro action (MIC, mg/l)
[40] = ATCC49766, Haemophilus influenzae ATCC 49766, read-out: Antibacterial in vitro action (MIC, mg/l)
[41] = ATCC25619, Pseudomonas aeruginosa ATCC 25619, read-out: Antibacterial in vitro action (MIC, mg/l)

CC[C@H]1OC(=O)[C@H](C)[C@@H](O[C@H]2C[C@@](C)(OC)[C@@H](O)[C@H](C)O2)[C@H](C)[C@@H](O[C@@H]2O[C@H](C)C[C@H](N(C)C)[C@H]2O)[C@](C)(O)C[C@@H](C)C(=O)[C@H](C)[C@@H](O)[C@]1(C)O [Er, erythromycin A]
MIC [1, 25]: < 0.125 mg/L
MIC ([2]; Staphylococcus aureus, ATCC25923, read-out: Antibacterial in vitro action (MIC, mg/l)): 0.25 mg/L (≈ 0.341 µM)
MIC ([3]; Staphylococcus epidermidis, ATCC12228, read-out: Antibacterial in vitro action (MIC, mg/l)): 0.25 mg/L (≈ 0.341 µM)
MIC ([4]; Enterococcus faecalis, ATCC35550, read-out: Antibacterial in vitro action (MIC, mg/l)): 1 mg/L (≈ 1.36 µM)
MIC [5, 26]: < 0.125 mg/L
MIC [6, 27]: < 0.125 mg/L
MIC [7]: 0.5 mg/L (≈ 0.681 µM)
MIC [8, 28]: < 0.125 mg/L
MIC [9, 29]: < 0.125 mg/L
MIC [10, 30]: < 0.125 mg/L
MIC [11]: 64 mg/L (≈ 87.2 µM)
MIC [12]: 32 mg/L (≈ 43.6 µM)
MIC ([13]; Proteus mirabilis, ATCC12453, read-out: Antibacterial in vitro action (MIC, mg/l)): > 128 mg/L
MIC ([14]; Proteus mirabilis, ATCC43071, read-out: Antibacterial in vitro action (MIC, mg/l)): > 128 mg/L
MIC [15]: 64 mg/L (≈ 87.2 µM)
MIC [16]: 32 mg/L (≈ 43.6 µM)
MIC ([17]; Yersinia enterocolitica, ATCC9610, read-out: Antibacterial in vitro action (MIC, mg/l)): 16 mg/L (≈ 21.8 µM)
MIC ([18]; Haemophilus influenzae, ATCC49247, read-out: Antibacterial in vitro action (MIC, mg/l)): 2 mg/L (≈ 2.73 µM)
MIC ([19]; Haemophilus influenzae, ATCC49766, read-out: Antibacterial in vitro action (MIC, mg/l)): 4 mg/L (≈ 5.45 µM)
MIC ([20]; Pseudomonas aeruginosa, ATCC25619, read-out: Antibacterial in vitro action (MIC, mg/l)): > 128 mg/L
gastric intolerance [21]: gastric intolerance in many patients

CC[C@H]1OC(=O)[C@H](C)[C@@H](O[C@H]2C[C@@](C)(OC)[C@@H](O)[C@H](C)O2)[C@H](C)[C@@H](O[C@@H]2O[C@H](C)C[C@H](N(C)C)[C@H]2O)[C@](C)(O)C[C@@H](C)CN(C)[C@H](C)[C@@H](O)[C@]1(C)O [Az, 9-deoxo-9a-methyl-9a-aza-9a-homoerythromycin A]
MIC [1, 25]: < 0.125 mg/L
MIC [2, 31]: 0.5 mg/L (≈ 0.668 µM)
MIC [3, 32]: 1 mg/L (≈ 1.34 µM)
MIC [4, 33]: 0.5 mg/L (≈ 0.668 µM)
MIC [5, 26]: < 0.125 mg/L
MIC [6, 27]: < 0.125 mg/L
MIC [7]: 0.125 mg/L (≈ 0.167 µM)
MIC [8, 28]: < 0.125 mg/L
MIC [9, 29]: < 0.125 mg/L
MIC [10, 30]: < 0.125 mg/L
MIC [11, 34]: 4 mg/L (≈ 5.34 µM)
MIC [12]: 2 mg/L (≈ 2.67 µM)
MIC [13, 35]: 64 mg/L (≈ 85.4 µM)
MIC [14, 36]: 64 mg/L (≈ 85.4 µM)
MIC [15, 37]: 2 mg/L (≈ 2.67 µM)
MIC [16]: 1 mg/L (≈ 1.34 µM)
MIC [17, 38]: 1 mg/L (≈ 1.34 µM)
MIC [18, 39]: 0.5 mg/L (≈ 0.668 µM)
MIC [19, 40]: 1 mg/L (≈ 1.34 µM)
MIC [20, 41]: 64 mg/L (≈ 85.4 µM)
biological half-time [22]: long biological half-time
penetration and accumulation within human phagocyte cells (human phagocyte cells): able to penetrate and to accumulate within human phagocyte cells
antimicrobial spectrum (gram-negative bacteria): broad antimicrobial spectrum including gram-negative bacteria

CC[C@H]1OC(=O)[C@H](C)[C@@H](O[C@H]2C[C@@](C)(OC)[C@@H](O)[C@H](C)O2)[C@H](C)[C@@H](O[C@@H]2O[C@H](C)C[C@H](N(C)C)[C@H]2O)[C@](C)(OC)C[C@@H](C)NC(=O)[C@H](C)[C@@H](O)[C@]1(C)O [Example 3, 6-O-methyl-8a-aza-8a-homoerythromycin A]
MIC ([1]; ATCC7644, Listeria monocytogenes ATCC 7644, read-out: Antibacterial in vitro action (MIC, mg/l)): < 0.125 mg/L
MIC [2, 31]: 0.5 mg/L (≈ 0.655 µM)
MIC [3, 32]: 0.5 mg/L (≈ 0.655 µM)
MIC [4, 33]: 1 mg/L (≈ 1.31 µM)
MIC ([5]; ATCC6305, Streptococcus pneumoniae ATCC 6305, read-out: Antibacterial in vitro action (MIC, mg/l)): < 0.125 mg/L
MIC ([6]; ATCC19615, Streptococcus pyogenes ATCC 19615, read-out: Antibacterial in vitro action (MIC, mg/l)): < 0.125 mg/L
MIC [7]: 0.25 mg/L (≈ 0.328 µM)
MIC ([8]; ATCC25238, Moraxella catarrhalis ATCC 25238, read-out: Antibacterial in vitro action (MIC, mg/l)): < 0.125 mg/L
MIC ([9]; ATCC19438, Campylobacter fetus ATCC 19438, read-out: Antibacterial in vitro action (MIC, mg/l)): < 0.125 mg/L
MIC ([10]; ATCC33291, Campylobacter jejuni ATCC 33291, read-out: Antibacterial in vitro action (MIC, mg/l)): < 0.125 mg/L
MIC [11, 34]: 16 mg/L (≈ 21 µM)
MIC [12]: 8 mg/L (≈ 10.5 µM)
MIC [13, 35]: 32 mg/L (≈ 41.9 µM)
MIC [14, 36]: 32 mg/L (≈ 41.9 µM)
MIC [15, 37]: 8 mg/L (≈ 10.5 µM)
MIC [16]: 4 mg/L (≈ 5.24 µM)
MIC [17, 38]: 4 mg/L (≈ 5.24 µM)
MIC [18, 39]: 1 mg/L (≈ 1.31 µM)
MIC [19, 40]: 1 mg/L (≈ 1.31 µM)
MIC [20, 41]: 32 mg/L (≈ 41.9 µM)

CC[C@H]1OC(=O)[C@H](C)[C@@H](O[C@H]2C[C@@](C)(OC)[C@@H](O)[C@H](C)O2)[C@H](C)[C@@H](O[C@@H]2O[C@H](C)C[C@H](N(C)C)[C@H]2O)[C@](C)(OC)C[C@@H](C)C(=O)[C@H](C)[C@@H](O)[C@]1(C)O [Cl, 6-O-methyl-erythromycin A]
MIC [1, 25]: < 0.125 mg/L
MIC [2, 31]: 0.5 mg/L (≈ 0.668 µM)
MIC [3, 32]: 0.25 mg/L (≈ 0.334 µM)
MIC [4, 33]: 0.25 mg/L (≈ 0.334 µM)
MIC [5, 26]: < 0.125 mg/L
MIC [6, 27]: < 0.125 mg/L
MIC [7]: 0.125 mg/L (≈ 0.167 µM)
MIC [8, 28]: < 0.125 mg/L
MIC [9, 29]: < 0.125 mg/L
MIC [10, 30]: < 0.125 mg/L
MIC [11, 34]: 64 mg/L (≈ 85.6 µM)
MIC [12]: 32 mg/L (≈ 42.8 µM)
MIC [13, 35]: 128 mg/L (≈ 171 µM)
MIC [14, 36]: > 128 mg/L
MIC [15, 37]: 32 mg/L (≈ 42.8 µM)
MIC [16]: 32 mg/L (≈ 42.8 µM)
MIC [17, 38]: 16 mg/L (≈ 21.4 µM)
MIC [18, 39]: 4 mg/L (≈ 5.35 µM)
MIC [19, 40]: 8 mg/L (≈ 10.7 µM)
MIC [20, 41]: > 128 mg/L
stability in acidic medium [23]: considerably more stable in acidic medium
in vitro activity against gram-positive bacterial strains [24]: increased in vitro activity against gram-positive bacterial strains
